# Measurements reported in ChEMBL document CHEMBL1156023, “Grassystatins A-C from marine cyanobacteria, potent cathepsin E inhibitors that reduce antigen presentation” (J Med Chem, 2009).
# Square brackets hold non-standard residues; d marks the D form. Peptide text beside a SMILES is read from it. * marks the point of attachment. Sta = CC(C)C[C@H](N)[C@@H](O)CC(=O)O; NMe2Val = CC(C)[C@@H](C(=O)*)N(C)C; dNMeF = CN[C@H](Cc1ccccc1)C(=O)O; dHiv = CC(C)[C@@H](O)C(=O)O; Hiv = CC(C)[C@H](O)C(=O)O
# Tests used:
# [1] = biological target: Angiotensin-converting enzyme (Homo sapiens) (UniProt P12821); test: Inhibition of ACE1 assessed as residual activity at 10 uM after 10 to 15 mins by fluorescence assay relative to control
# Chymase (Homo sapiens) = Chymase (Homo sapiens) (UniProt P23946); test: Inhibition of chymase assessed as residual activity at 10 uM after 10 to 15 mins by fluorescence assay relative to control
# [2] = biological target: Matrilysin (Homo sapiens) (UniProt P09237); test: Inhibition of MMP7 assessed as residual activity at 10 uM after 10 to 15 mins by fluorescence assay relative to control
# Caspase-6 = Caspase-6 (Homo sapiens, UniProt P55212); test: Inhibition of caspase 6 after 10 to 15 mins by fluorescence assay
# [3] = biological target: Chymotrypsin-like elastase family member 1 (Sus scrofa) (UniProt P00772); test: Inhibition of porcine pancreatic elastase assessed as residual activity at 10 uM after 10 to 15 mins by fluorescence assay relative to control
# Stromelysin-1 = Stromelysin-1 (Homo sapiens, UniProt P08254); test: Inhibition of MMP3 assessed as residual activity at 10 uM after 10 to 15 mins by fluorescence assay relative to control
# Stromelysin-3 = Stromelysin-3 (Homo sapiens, UniProt P24347); test: Inhibition of MMP11 catalytic domain after 10 to 15 mins by fluorescence assay
# [4] = biological target: Macrophage metalloelastase (Homo sapiens, UniProt P39900); test: Inhibition of MMP12 catalytic domain after 10 to 15 mins by fluorescence assay
# Stromelysin-2 [5] = biological target: T1, Stromelysin-2 (Homo sapiens, UniProt P09238); test: Inhibition of MMP10 assessed as residual activity at 10 uM after 10 to 15 mins by fluorescence assay relative to control
# [6] = biological target: Dipeptidyl peptidase 9 (Homo sapiens) (UniProt Q86TI2); test: Inhibition of DPP9 assessed as residual activity at 10 uM after 10 to 15 mins by fluorescence assay relative to control
# Caspase-5 = Caspase-5 (Homo sapiens, UniProt P51878); test: Inhibition of caspase 5 after 10 to 15 mins by fluorescence assay
# Interstitial collagenase = Interstitial collagenase (Homo sapiens, UniProt P03956); test: Inhibition of MMP1 after 10 to 15 mins by fluorescence assay
# Stromelysin-2 [7] = biological target: T1, Stromelysin-2; test: Inhibition of MMP10 catalytic domain after 10 to 15 mins by fluorescence assay
# Renin (Homo sapiens) = Renin (Homo sapiens) (UniProt P00797); test: Inhibition of human renin assessed as residual activity at 10 uM after 10 to 15 mins by fluorescence assay relative to control
# [8] = biological target: Plasminogen (Homo sapiens) (UniProt P00747); test: Inhibition of human plasmin assessed as residual activity at 10 uM after 10 to 15 mins by fluorescence assay relative to control
# [9] = biological target: T2, Matrix metalloproteinase-14 (Homo sapiens, UniProt P50281); test: Inhibition of MMP14 catalytic domain after 10 to 15 mins by fluorescence assay
# [10] = biological target: Cathepsin Z (Homo sapiens) (UniProt Q9UBR2); test: Inhibition of cathepsin Z assessed as residual activity at 10 uM after 10 to 15 mins by fluorescence assay relative to control
# [11] = biological target: T2, Matrix metalloproteinase-14; test: Inhibition of MMP14 assessed as residual activity at 10 uM after 10 to 15 mins by fluorescence assay relative to control
# [12] = biological target: Caspase-14 (Homo sapiens) (UniProt P31944); test: Inhibition of caspase 14 assessed as residual activity at 10 uM after 10 to 15 mins by fluorescence assay relative to control
# [13] = biological target: Vitamin K-dependent protein C (Homo sapiens, UniProt P04070); test: Inhibition of activated protein C assessed as residual activity at 10 uM after 10 to 15 mins by fluorescence assay in presence of 50% […] relative to control
# [14] = biological target: Matrix metalloproteinase-9 (Homo sapiens, UniProt P14780); test: Inhibition of MMP9 assessed as residual activity at 10 uM after 10 to 15 mins by fluorescence assay relative to control
# Caspase-14 = Caspase-14 (Homo sapiens, UniProt P31944); test: Inhibition of caspase 14 after 10 to 15 mins by fluorescence assay
# Caspase-9 = Caspase-9 (Homo sapiens, UniProt P55211); test: Inhibition of caspase 9 after 10 to 15 mins by fluorescence assay
# Caspase-2 (Homo sapiens) = Caspase-2 (Homo sapiens) (UniProt P42575); test: Inhibition of caspase 2 assessed as residual activity at 10 uM after 10 to 15 mins by fluorescence assay relative to control
# Caspase-5 (Homo sapiens) = Caspase-5 (Homo sapiens) (UniProt P51878); test: Inhibition of caspase 5 assessed as residual activity at 10 uM after 10 to 15 mins by fluorescence assay relative to control
# [15] = biological target: Beta-secretase 1 (Homo sapiens) (UniProt P56817); test: Inhibition of BACE1 assessed as residual activity at 10 uM after 10 to 15 mins by fluorescence assay relative to control
# Neutrophil collagenase = Neutrophil collagenase (Homo sapiens, UniProt P22894); test: Inhibition of MMP8 catalytic domain after 10 to 15 mins by fluorescence assay
# Caspase-10 = Caspase-10 (Homo sapiens, UniProt Q92851); test: Inhibition of caspase 10 after 10 to 15 mins by fluorescence assay
# [16] = biological target: Dipeptidyl peptidase 1 (Homo sapiens) (UniProt P53634); test: Inhibition of cathepsin C assessed as residual activity at 10 uM after 10 to 15 mins by fluorescence assay relative to control
# Caspase-4 = Caspase-4 (Homo sapiens, UniProt P49662); test: Inhibition of caspase 4 after 10 to 15 mins by fluorescence assay
# Caspase-4 (Homo sapiens) = Caspase-4 (Homo sapiens) (UniProt P49662); test: Inhibition of caspase 4 assessed as residual activity at 10 uM after 10 to 15 mins by fluorescence assay relative to control
# [17] = biological target: Stromelysin-3 (Homo sapiens) (UniProt P24347); test: Inhibition of MMP11 assessed as residual activity at 10 uM after 10 to 15 mins by fluorescence assay relative to control
# Caspase-14, sequence (P31944 6-146 limits assumed): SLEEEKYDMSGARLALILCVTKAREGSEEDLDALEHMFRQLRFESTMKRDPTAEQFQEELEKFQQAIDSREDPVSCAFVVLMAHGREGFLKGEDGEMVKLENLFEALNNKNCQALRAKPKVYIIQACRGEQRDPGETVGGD
# Caspase-14, sequence (P31944 153-242 limits assumed): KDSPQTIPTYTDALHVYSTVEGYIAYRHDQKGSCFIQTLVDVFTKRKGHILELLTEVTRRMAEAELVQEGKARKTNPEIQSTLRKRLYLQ
# Caspase-14 (Homo sapiens), sequence (P31944 6-146 limits assumed): as the sequence (P31944 6-146 limits assumed) above
# Caspase-14 (Homo sapiens), sequence (P31944 153-242 limits assumed): as the sequence (P31944 153-242 limits assumed) above
# Interstitial collagenase, sequence (P03956 whole entry, the tested form may be a part): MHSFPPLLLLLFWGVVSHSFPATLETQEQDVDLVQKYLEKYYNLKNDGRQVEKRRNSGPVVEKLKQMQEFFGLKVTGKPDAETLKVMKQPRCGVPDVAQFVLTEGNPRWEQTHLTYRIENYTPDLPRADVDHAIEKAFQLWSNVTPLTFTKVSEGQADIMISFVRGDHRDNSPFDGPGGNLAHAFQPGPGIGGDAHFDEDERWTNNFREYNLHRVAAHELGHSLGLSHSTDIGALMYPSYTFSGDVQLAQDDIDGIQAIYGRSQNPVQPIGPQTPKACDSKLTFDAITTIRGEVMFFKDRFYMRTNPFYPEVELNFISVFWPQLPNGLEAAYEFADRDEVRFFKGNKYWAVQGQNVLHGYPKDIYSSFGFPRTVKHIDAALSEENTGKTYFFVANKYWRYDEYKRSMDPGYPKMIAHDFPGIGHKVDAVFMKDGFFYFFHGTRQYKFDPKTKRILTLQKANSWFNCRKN
# Caspase-4, sequence (P49662 81-270 limits assumed): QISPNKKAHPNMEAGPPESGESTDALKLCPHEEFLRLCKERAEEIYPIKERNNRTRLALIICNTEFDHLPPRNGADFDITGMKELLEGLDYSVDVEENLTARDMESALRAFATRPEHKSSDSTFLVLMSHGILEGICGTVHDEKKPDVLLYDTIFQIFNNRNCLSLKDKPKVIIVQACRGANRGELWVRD
# Caspase-4, sequence (P49662 290-377 limits assumed): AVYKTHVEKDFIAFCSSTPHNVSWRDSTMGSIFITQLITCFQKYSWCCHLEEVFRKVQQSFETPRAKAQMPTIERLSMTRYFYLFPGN
# Caspase-4 (Homo sapiens), sequence (P49662 81-270 limits assumed): as the sequence (P49662 81-270 limits assumed) above
# Caspase-4 (Homo sapiens), sequence (P49662 290-377 limits assumed): as the sequence (P49662 290-377 limits assumed) above
# Macrophage metalloelastase, sequence (P39900 whole entry, the tested form may be a part): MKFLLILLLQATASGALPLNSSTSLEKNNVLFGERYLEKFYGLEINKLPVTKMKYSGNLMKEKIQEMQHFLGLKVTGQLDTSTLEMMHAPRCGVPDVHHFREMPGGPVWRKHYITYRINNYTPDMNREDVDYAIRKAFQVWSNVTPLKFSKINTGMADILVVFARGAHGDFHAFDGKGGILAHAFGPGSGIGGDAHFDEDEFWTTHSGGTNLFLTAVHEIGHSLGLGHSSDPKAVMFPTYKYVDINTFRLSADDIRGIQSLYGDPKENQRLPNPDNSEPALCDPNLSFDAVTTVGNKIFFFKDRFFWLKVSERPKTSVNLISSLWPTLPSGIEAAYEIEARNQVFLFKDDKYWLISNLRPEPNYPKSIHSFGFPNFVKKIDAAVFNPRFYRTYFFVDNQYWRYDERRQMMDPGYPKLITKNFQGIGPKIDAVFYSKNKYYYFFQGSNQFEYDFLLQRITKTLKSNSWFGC
# Stromelysin-1, sequence (P08254 100-477 limits assumed): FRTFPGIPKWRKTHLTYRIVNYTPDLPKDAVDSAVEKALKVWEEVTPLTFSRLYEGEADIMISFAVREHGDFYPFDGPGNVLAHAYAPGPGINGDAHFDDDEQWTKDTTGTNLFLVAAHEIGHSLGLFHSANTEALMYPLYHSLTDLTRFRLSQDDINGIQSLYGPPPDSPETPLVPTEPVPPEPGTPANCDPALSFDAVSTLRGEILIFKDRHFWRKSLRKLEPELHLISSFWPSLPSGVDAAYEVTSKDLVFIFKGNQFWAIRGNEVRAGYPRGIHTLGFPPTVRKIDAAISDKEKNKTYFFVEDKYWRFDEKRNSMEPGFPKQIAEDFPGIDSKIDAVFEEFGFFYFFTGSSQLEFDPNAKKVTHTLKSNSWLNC
# Vitamin K-dependent protein C, sequence (P04070 43-197 limits assumed): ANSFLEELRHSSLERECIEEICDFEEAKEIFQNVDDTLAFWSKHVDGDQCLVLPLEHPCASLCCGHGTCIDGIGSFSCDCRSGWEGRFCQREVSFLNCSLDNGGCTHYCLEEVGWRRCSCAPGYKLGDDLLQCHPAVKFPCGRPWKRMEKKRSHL
# Vitamin K-dependent protein C, sequence (P04070 212-461 limits assumed): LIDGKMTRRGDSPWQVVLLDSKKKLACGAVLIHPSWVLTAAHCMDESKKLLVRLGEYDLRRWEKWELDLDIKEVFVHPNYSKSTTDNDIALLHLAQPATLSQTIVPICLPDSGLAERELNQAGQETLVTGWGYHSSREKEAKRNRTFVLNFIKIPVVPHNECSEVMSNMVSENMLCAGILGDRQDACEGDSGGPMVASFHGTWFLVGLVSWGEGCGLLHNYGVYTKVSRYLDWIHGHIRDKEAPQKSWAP
# Caspase-6, sequence (P55212 24-179 limits assumed): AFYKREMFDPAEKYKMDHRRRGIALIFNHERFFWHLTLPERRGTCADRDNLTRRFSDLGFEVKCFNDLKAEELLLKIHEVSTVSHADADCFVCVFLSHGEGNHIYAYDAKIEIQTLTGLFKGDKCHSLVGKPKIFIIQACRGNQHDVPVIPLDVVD
# Caspase-6, sequence (P55212 194-293 limits assumed): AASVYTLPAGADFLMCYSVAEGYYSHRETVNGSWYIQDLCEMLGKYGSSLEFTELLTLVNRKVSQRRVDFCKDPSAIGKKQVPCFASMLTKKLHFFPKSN
# Caspase-2 (Homo sapiens), sequence (P42575 170-325 limits assumed): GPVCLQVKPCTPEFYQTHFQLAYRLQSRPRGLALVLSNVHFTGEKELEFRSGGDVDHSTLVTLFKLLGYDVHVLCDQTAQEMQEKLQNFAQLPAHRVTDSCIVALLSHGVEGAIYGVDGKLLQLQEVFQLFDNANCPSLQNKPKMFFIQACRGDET
# Caspase-2 (Homo sapiens), sequence (P42575 334-452 limits assumed): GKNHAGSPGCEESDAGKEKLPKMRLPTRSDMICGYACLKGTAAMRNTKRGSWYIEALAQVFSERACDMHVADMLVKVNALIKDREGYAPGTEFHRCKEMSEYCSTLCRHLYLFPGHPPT
# Plasminogen (Homo sapiens), sequence (P00747 97-580 limits assumed): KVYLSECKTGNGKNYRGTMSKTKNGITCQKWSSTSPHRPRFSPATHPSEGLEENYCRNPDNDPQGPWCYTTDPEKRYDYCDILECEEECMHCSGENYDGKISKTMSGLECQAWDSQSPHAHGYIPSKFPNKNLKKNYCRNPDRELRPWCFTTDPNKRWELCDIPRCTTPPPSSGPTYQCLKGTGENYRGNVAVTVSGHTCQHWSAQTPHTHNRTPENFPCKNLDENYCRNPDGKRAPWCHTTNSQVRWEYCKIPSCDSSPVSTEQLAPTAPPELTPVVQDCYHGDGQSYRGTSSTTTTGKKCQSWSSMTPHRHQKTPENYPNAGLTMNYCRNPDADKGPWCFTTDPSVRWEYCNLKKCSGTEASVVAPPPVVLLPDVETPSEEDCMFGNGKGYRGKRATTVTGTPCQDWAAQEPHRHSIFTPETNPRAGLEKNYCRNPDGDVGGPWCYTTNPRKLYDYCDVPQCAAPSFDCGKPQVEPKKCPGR
# Plasminogen (Homo sapiens), sequence (P00747 581-810 limits assumed): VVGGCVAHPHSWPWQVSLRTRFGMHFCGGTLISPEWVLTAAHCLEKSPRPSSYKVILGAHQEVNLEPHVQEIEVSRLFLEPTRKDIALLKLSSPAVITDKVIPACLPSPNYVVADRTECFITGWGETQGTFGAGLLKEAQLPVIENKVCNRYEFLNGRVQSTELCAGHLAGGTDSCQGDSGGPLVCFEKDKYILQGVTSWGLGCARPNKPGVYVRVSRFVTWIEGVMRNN
# Matrix metalloproteinase-9, sequence (P14780 whole entry): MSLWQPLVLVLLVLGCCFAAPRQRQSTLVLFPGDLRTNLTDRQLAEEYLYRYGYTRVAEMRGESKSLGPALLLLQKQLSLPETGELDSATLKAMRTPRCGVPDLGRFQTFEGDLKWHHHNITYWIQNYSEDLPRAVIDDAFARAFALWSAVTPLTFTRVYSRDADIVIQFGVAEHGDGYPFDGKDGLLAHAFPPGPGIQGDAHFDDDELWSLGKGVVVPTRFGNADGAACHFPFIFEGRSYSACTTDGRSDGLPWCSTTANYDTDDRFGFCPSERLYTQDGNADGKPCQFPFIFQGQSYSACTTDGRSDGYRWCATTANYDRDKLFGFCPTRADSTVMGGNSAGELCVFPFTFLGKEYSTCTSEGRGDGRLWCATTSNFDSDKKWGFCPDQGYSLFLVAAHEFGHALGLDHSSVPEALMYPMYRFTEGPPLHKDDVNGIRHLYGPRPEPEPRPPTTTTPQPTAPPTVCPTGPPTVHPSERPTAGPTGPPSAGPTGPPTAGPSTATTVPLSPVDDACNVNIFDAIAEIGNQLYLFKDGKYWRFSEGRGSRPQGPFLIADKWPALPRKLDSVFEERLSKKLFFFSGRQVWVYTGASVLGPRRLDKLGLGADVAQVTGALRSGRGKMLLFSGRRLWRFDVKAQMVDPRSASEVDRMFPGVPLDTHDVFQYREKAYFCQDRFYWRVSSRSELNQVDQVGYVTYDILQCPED
smiles,measurement,setting,value
COC(=O)[C@@H]1CCCN1C(=O)[C@@H](Cc1ccccc1)N(C)C(=O)[C@H](C)NC(=O)[C@@H](NC(=O)C[C@H](O)[C@H](CC(C)C)NC(=O)[C@H](CC(N)=O)NC(=O)[C@H](CC(C)C)NC(=O)[C@H](OC(=O)[C@@H](OC(=O)[C@H](C(C)C)N(C)C)C(C)C)C(C)C)[C@@H](C)O [GRASSYSTATIN A] (NMe2Val-[Hiv][dHiv]LN[Sta]TA[dNMeF]P-OMe),Activity,[1],84%
same,Activity,Chymase (Homo sapiens),90%
same,Activity,[2],90%
same,IC50,Caspase-6,5 µM
same,Activity,[3],66%
same,Activity,Stromelysin-1,86%
same,IC50,Stromelysin-3,5 µM
same,IC50,[4],5 µM
same,Activity,Stromelysin-2 [5],76%
same,Activity,[6],82%
same,IC50,Caspase-5,5 µM
same,IC50,Interstitial collagenase,5 µM
same,IC50,Stromelysin-2 [7],5 µM
same,Activity,Renin (Homo sapiens),96%
same,Activity,[8],86%
same,IC50,[9],5 µM
same,Activity,[10],94%
same,Activity,[11],76%
same,Activity,[12],96%
same,Activity,[13],130%
same,Activity,[14],81%
same,IC50,Caspase-14,5 µM
same,IC50,Caspase-9,5 µM
same,Activity,Caspase-2 (Homo sapiens),69%
same,Activity,Caspase-5 (Homo sapiens),58%
same,Activity,[15],100%
same,IC50,Neutrophil collagenase,5 µM
same,IC50,Caspase-10,5 µM
same,Activity,[16],110%
same,IC50,Caspase-4,5 µM
same,Activity,Caspase-4 (Homo sapiens),64%
same,Activity,[17],88%
